How the values were obtained:
[1] = tested on: contractility of the heart; experiment: Positive inotropic effect (increase in max dP/dt) in reserpine-pretreated, anaesthetized cats, i.v. dosing; format: in vivo; conditions: continuous infusion
Procedure: The positive inotropic effect and the cardioselectivity of the compounds were studied in cats with an average weight of 3 kg. The animals were pretreated with reserpine (5 mg/kg i.p.) about 16 hours before experiment. This treatment eliminated the reflex sympathetic control of the heart and the vascular tonus. Following pentobarbital anaesthesia (Mebumal^e, 30 mg/kg i.p.) artificial air respiration was started. The two vagus nerves were cut and the adrenal glands were excluded from the circulation by means of ligatures on the adrenal veins.
Blood pH, pC02 and p02 were kept within the normal ranges throughout the experiments. All recordings were made on a Grass Polygraph. Heart rate, pressure in the left ventricle (LVP), the first derivative of LVP (dP/dt), intra-arterial blood pressure and peripheral resistance were recorded. LVP was recorded via a catheter tip pressure transducer (Millar), which was inserted via the left carotid artery. This.pressure curve was differentiated and max dP/dt was recorded by means of a peak detector. The recording of max dP/dt was linear up to 20 […]. The increase in max dP/dt was used as a measure of the increased contractility of the heart.
The substances were administered intravenously in increasing doses. […]

[2] = tested on: inotropic effect (max dF/dt) in the aorta; experiment: Duration of positive inotropic action (decline of max dF/dt in the aorta) in conscious dogs, i.v. dosing; format: in vivo; conditions: conscious beagle dogs, intravenous
Procedure: The duration of action of the compounds has been studied in conscious beagle dogs. An electromagnetic flow probe was inplanted on the ascending aorta for determination of the r inotropic effect measured as maximal flow acceleration (max dF/dt) in the aorta. For determination of blood pressure catheters were inplanted in thoracic aorta and .left atrium. Increasing doses of the substances were administered intravenously and the decline of inotropic effect (max dF/dt) was used for determination of duration.

## CC(C)NCC(O)c1ccc(O)c(O)c1 (centres unmarked) [isoprenaline]
[1]
  Half maximal effect: 0.004 µmol/kg/min
[2]
  time for 50% decline of the positive inotropic effect (max dF/dt): less than 1 min
